Laboratory results reported in patent US20070128217A1 (priority 2003, published 2007).

Experiments:
[1] = tested on: antibodies in sera from SARS patients (sera 1a, 1b, 2, 6, 37, 62, London, SARS-yellow, SARS-green); assay type: binding, human; design: Binding of serum 6 to linear peptides of protein X1 of SARS-CoV Urbani / Binding of serum 37 to linear peptides of protein X1 of SARS-CoV Urbani / Binding of serum 6 to looped/cyclic peptide (PEPSCAN-ELISA) / Binding of serum 37 to looped/cyclic peptide (PEPSCAN-ELISA) / Binding of serum 37 to looped/cyclic peptides of protein X1 of SARS-CoV Urbani / Binding of serum 6 to linear peptides of protein X2 / Binding of serum 37 to linear peptides of protein X2 / Binding of serum 37 to looped/cyclic peptides of protein X2 of SARS-CoV Urbani / Binding of serum 6 to linear peptides of protein M of SARS-CoV Urbani / Binding of serum 37 to linear peptides of protein M of SARS-CoV Urbani / Binding of serum 6 to looped/cyclic peptides of protein M of SARS-CoV Urbani / Binding of serum 37 to looped/cyclic peptides of protein M of SARS-CoV Urbani / Binding of serum 6 to linear peptides of protein X3 of SARS-CoV Urbani / Binding of serum 37 to linear peptides of protein X3 of SARS-CoV Urbani / Binding of serum 37 to looped/cyclic peptides of protein X3 of SARS-CoV Urbani / Binding of serum 6 to linear peptides of protein X4 of SARS-CoV Urbani / Binding of serum 37 to linear peptides of protein X4 of SARS-CoV Urbani / Binding of serum 37 to looped/cyclic peptides of protein X4 of SARS-CoV Urbani / Binding of serum 6 to linear peptides of protein X5 of SARS-CoV Urbani / Binding of serum 37 to linear peptides of protein X5 of SARS-CoV Urbani / Binding of serum 37 to looped/cyclic peptides of protein X5 of SARS-CoV Urbani / Binding of serum 6 to linear peptides of protein N of SARS-CoV Urbani / Binding of serum 37 to linear peptides of protein N of SARS-CoV Urbani / Binding of serum 6 to linear peptide (PEPSCAN-ELISA) / Binding of serum 1a to looped/cyclic peptides of protein N of SARS-CoV Urbani / Binding of serum 1b to looped/cyclic peptides of protein N of SARS-CoV Urbani / Binding of serum 2 to looped/cyclic peptides of protein N of SARS-CoV Urbani / Binding of serum 6 to looped/cyclic peptides of protein N of SARS-CoV Urbani / Binding of serum 37 to looped/cyclic peptides of protein N of SARS-CoV Urbani / Binding of serum 62 to looped/cyclic peptides of protein N of SARS-CoV Urbani / Binding of serum London to looped/cyclic peptides of protein N of SARS-CoV Urbani / Binding of serum SARS-green to looped/cyclic peptides of protein N of SARS-CoV Urbani: unit not given here
[2] = tested on: control sera (pooled serum of ten healthy LUMC hospital workers; commercial negative donor pooled serum from the Dutch bloodbank); assay type: binding, human; design: Binding of Control serum LUMC to linear peptides / Binding of Control serum Blood-bank to linear peptides / Binding of Control serum LUMC to looped peptides / Binding of Control Serum Blood-Bank to Looped peptides / Binding of Control serum LUMC to linear peptides of the protein M of SARS-CoV Urbani / Binding of Control serum Blood-bank to linear peptides of the protein M of SARS-CoV Urbani / Binding of Control serum LUMC to looped peptides of the protein M of SARS-CoV Urbani / Binding of Control Serum Blood-Bank to Looped peptides of the protein M of SARS-CoV Urbani: unit not given here
[3] = tested on: rabbit serum obtained by immunizing a rabbit with the SARS-CoV strain Frankfurt 1; assay type: binding; design: Binding of a rabbit serum to linear peptides / Binding of a rabbit serum to looped peptides / Rabbit serum linear peptides / Rabbit serum looped peptides / Binding of a rabbit serum to linear peptides of protein N of SARS-CoV Urbani (Rabbit serum linear peptides) / Binding of a rabbit serum to looped/cyclic peptides of protein N of SARS-CoV Urbani (Rabbit serum looped peptides): unit not given here

Sequence: PLRGTIVTRPLMESE
- Binding of serum 1a to linear peptides of protein M of SARS-CoV Urbani [1]: 0.8
- Binding of serum 1b to linear peptides of protein M of SARS-CoV Urbani [1]: 0.7
- Binding of serum 2 to linear peptides of protein M of SARS-CoV Urbani [1]: 0.4
- Binding of serum 6 to linear peptides of protein M of SARS-CoV Urbani [1]: 0.4
- Binding of serum 37 to linear peptides of protein M of SARS-CoV Urbani [1]: 0.8
- Binding of serum 62 to linear peptides of protein M of SARS-CoV Urbani [1]: 0.7
- Binding of serum London to linear peptides of protein M of SARS-CoV Urbani [1]: 0.3
- Binding of serum SARS-green to linear peptides of protein M of SARS-CoV Urbani [1]: 0.5
- Binding of serum SARS-yellow to linear peptides of protein M of SARS-CoV Urbani [1]: 0.0
- Recognition of the peptide by sera of SARS-CoV infected individuals, and form (linear, looped/cyclic) in which it is recognized [1]: recognized in looped/cyclic form
- Binding of Control Serum Blood-Bank to Looped peptides of the protein M of SARS-CoV Urbani [2]: 0.5
- Binding of Control serum Blood-bank to linear peptides of the protein M of SARS-CoV Urbani [2]: 0.6
- Binding of Control serum LUMC to linear peptides of the protein M of SARS-CoV Urbani [2]: 0.3
- Binding of Control serum LUMC to looped peptides of the protein M of SARS-CoV Urbani [2]: 0.8
- Rabbit serum linear peptides [3]: 0.4
- Rabbit serum looped peptides [3]: 0.4

Sequence: HLVDFQVTIAEILII
- Binding of serum 1a to linear peptides of protein X3 of SARS-CoV Urbani [1]: 0.8
- Binding of serum 1a to looped/cyclic peptides of protein X3 of SARS-CoV Urbani [1]: 0.7
- Binding of serum 1b to linear peptides of protein X3 of SARS-CoV Urbani [1]: 0.6
- Binding of serum 1b to looped/cyclic peptides of protein X3 of SARS-CoV Urbani [1]: 0.4
- Binding of serum 2 to linear peptides of protein X3 of SARS-CoV Urbani [1]: 0.7
- Binding of serum 2 to looped/cyclic peptides of protein X3 of SARS-CoV Urbani [1]: 0.6
- Binding of serum 6 to linear peptides of protein X3 of SARS-CoV Urbani [1]: 0.5
- Binding of serum 6 to looped/cyclic peptides of protein X3 of SARS-CoV Urbani [1]: 0.4
- Binding of serum 37 to linear peptides of protein X3 of SARS-CoV Urbani [1]: 0.7
- Binding of serum 37 to looped/cyclic peptides of protein X3 of SARS-CoV Urbani [1]: 0.6
- Binding of serum 62 to linear peptides of protein X3 of SARS-CoV Urbani [1]: 0.6
- Binding of serum 62 to looped/cyclic peptides of protein X3 of SARS-CoV Urbani [1]: 0.7
- Binding of serum London to linear peptides of protein X3 of SARS-CoV Urbani [1]: 0.6
- Binding of serum London to looped/cyclic peptides of protein X3 of SARS-CoV Urbani [1]: 0.2
- Binding of serum SARS-green to linear peptides of protein X3 of SARS-CoV Urbani [1]: 0.4
- Binding of serum SARS-green to looped/cyclic peptides of protein X3 of SARS-CoV Urbani [1]: 0.2
- Binding of serum SARS-yellow to linear peptides of protein X3 of SARS-CoV Urbani [1]: 0.5
- Binding of serum SARS-yellow to looped/cyclic peptides of protein X3 of SARS-CoV Urbani [1]: 0.7
- Binding of Control Serum Blood-Bank to Looped peptides of the protein X3 of SARS-CoV Urbani [2]: 0.9
- Binding of Control serum Blood-bank to linear peptides of the protein X3 of SARS-CoV Urbani [2]: 0.8
- Binding of Control serum LUMC to linear peptides of the protein X3 of SARS-CoV Urbani [2]: 0.7
- Binding of Control serum LUMC to looped peptides of the protein X3 of SARS-CoV Urbani [2]: 0.7
- Rabbit serum linear peptides [3]: 0.3
- Rabbit serum looped peptides [3]: 0.3

Sequence: IQLSLLKVTAFQHQN
- Binding of serum 1a to linear peptides of protein X2 [1]: 0.5
- Binding of serum 1a to looped/cyclic peptides of protein X2 of SARS-CoV Urbani [1]: 0.5
- Binding of serum 1b to linear peptides of protein X2 [1]: 0.4
- Binding of serum 1b to looped/cyclic peptides of protein X2 of SARS-CoV Urbani [1]: 0.6
- Binding of serum 2 to linear peptides of protein X2 [1]: 0.4
- Binding of serum 2 to looped/cyclic peptides of protein X2 of SARS-CoV Urbani [1]: 0.3
- Binding of serum 6 to linear peptides of protein X2 [1]: 0.5
- Binding of serum 6 to looped/cyclic peptides of protein X2 of SARS-CoV Urbani [1]: 0.4
- Binding of serum 37 to linear peptides of protein X2 [1]: 0.6
- Binding of serum 37 to looped/cyclic peptides of protein X2 of SARS-CoV Urbani [1]: 0.4
- Binding of serum 62 to linear peptides of protein X2 [1]: 0.3
- Binding of serum 62 to looped/cyclic peptides of protein X2 of SARS-CoV Urbani [1]: 0.6
- Binding of serum London to linear peptides of protein X2 [1]: 0.3
- Binding of serum London to looped/cyclic peptides of protein X2 of SARS-CoV Urbani [1]: 0.2
- Binding of serum SARS-green to linear peptides of protein X2 [1]: 0.2
- Binding of serum SARS-green to looped/cyclic peptides of protein X2 of SARS-CoV Urbani [1]: 0.2
- Binding of serum SARS-yellow to linear peptides of protein X2 [1]: 0.3
- Binding of serum SARS-yellow to looped/cyclic peptides of protein X2 of SARS-CoV Urbani [1]: 0.5
- Binding of Control Serum Blood-Bank to Looped peptides [2]: 0.6
- Binding of Control serum Blood-bank to linear peptides [2]: 0.4
- Binding of Control serum LUMC to linear peptides [2]: 0.7
- Binding of Control serum LUMC to looped peptides [2]: 0.6
- Binding of a rabbit serum to linear peptides [3]: 0.6
- Binding of a rabbit serum to looped peptides [3]: 0.5
